Literature values, collected in patent US20210030671A1, “LIQUID DOSAGE FORMS OF CINACALCET OR SALT THEREOF” (FTF PHARMA PRIVATE LIMITED, priority 2018, published 2021).
Structures can show the parent of a compound that is named as a salt. Where two headings read alike, the source gives them in different places.

solubility (in methanol or 95% ethanol)	solubility (in water)	SMILES
soluble	slightly soluble	C[C@@H](NCCCc1cccc(C(F)(F)F)c1)c1cccc2ccccc12 [Cinacalcet hydrochloride]
	< 1 µg/mL	C[C@@H](NCCCc1cccc(C(F)(F)F)c1)c1cccc2ccccc12 [Cinacalcet, N-[1-(R)-(−)-(1-naphthyl)ethyl]-3-[3-(trifluoromethyl)phenyl]-1-aminopropane]
